The assay relates to Mice. Put plainly: Acute cerebral ischemia hypoxia survival time of mice, different formulations (Example 1). Conditions: 800 mg/kg per day oral, 7 days, sacrificed 1 h after last dosing. The assay is classed as in vivo. On the procedure:
The acute cerebral ischemia hypoxia survival time of the mice through different formulations is provided.
Dosage: 800 mg/kg per day per group. The test sample is prepared by redistilled water and drenched into the stomach through the mouth for seven days continuously.
Testing Method: The mice are respectively sacrificed one hour after the last stomach drenching, and the time from the sacrifice of the mice to the time when they stop gasping through mouths is recorded with a second counter.

Regarding `NC(=O)NCCC[C@H](N)C(=O)O` [Sample 1, Citrulline], the “Gasp Stopping Time” value amounted to 12.6 s.

The values are drawn from US9192638B2, “Preparation comprising amino acids and plants and its activity in the alcohol detoxification” (Modutech S.A., priority 2009, dated 2015).
